Measurements reported in patent US7186413B2, “Hydrogels and water soluble polymeric carriers for drug delivery” (The Regents of the University of Michigan, priority 1998, dated 2007).
Values belong to the compound of their own block, whether it stands above or below them.

Tests used:
KB cells = assay: standard cytotoxicity assay with KB cells
Description: The activity of covalently bound daunomycin released from 6 wt % PAG gels was tested using KB cells in a standard cytotoxicity assay. Gels containing either zero, 13.3 or 30 mg of drug per gram of PAG were incubated in sterile media at 37° C. which was tested and replaced weekly.
The biocompatibility of PAG has been tested in vitro.
Sodium periodate, adipic dihydrazide, ethylene glycol, and calcium chloride were purchased from Aldrich Chemical Company (Milwaukee, Wis.) and were used as received. Daunomycin hydrochloride was purchased from Fluka Chemical Corporation (Ronkonkoma, N.Y.). Dulbecco's Modified Eagle's Medium (DMEM) was purchased from Life Technologies (Grand Island, N.Y.). […] The elution of the drug was monitored at 480 nm. • Synthesis of the poly(aldehyde guluronate), PAG. […] The product was analyzed by ^1H-NMR, FTIR, and the aldehyde content was quantified using trinitrobenzene sulfonic acid. • Preparation of cross-linked PAG hydrogels. […] To quantify the amount of daunomycin that is incorporated in the gels, two sets of hydrogels were formed as described above. […] The solutions were then sonicated for 30 minutes, quantitatively transferred to 5 ml volumetric flasks, and diluted with double distilled water. […]

[1] = in vitro release of daunomycin from cross-linked PAG hydrogels; type: physicochemical
[2] = determination of the drug incorporated (retained) in PAG hydrogel; type: physicochemical; conditions: lyophilized, crushed PAG hydrogel extracted with water
Description: The reaction described in Example 2 was utilized to incorporate daunomycin into hydrogels for localized drug delivery. HPLC was used to determine the amount of daunomycin that reacted with adipic dihydrazide before the addition of PAG. Mixtures of daunomycin and adipic dihydrazide were analyzed and found to contain 88.5% of the daunomycin-adipic dihydrazide conjugate and 11.5% of free drug (FIG. 21). The amount of daunomycin that was covalently incorporated into the hydrogel was next determined by quantifying the amount of free drug in the hydrogel. Hydrogels containing daunomycin or trypan blue were synthesized, frozen, lyophilized, and crushed to form powders. The free drug was then dissolved in water and the resulting mixture was filtered to remove any fine particles. The concentration of the free drug was then determined spectrophotometrically. […] Only two percent of the trypan blue was retained in the hydrogel. In comparison, 86.9±0.1% of daunomycin remained in the gelatinous particles. Moreover, hydrogels containing trypan blue that were incubated in DMEM released the entire drug within 24 hours. These findings clearly indicate that daunomycin is covalently coupled to the hydrogel through the adipic dihydrazide molecule. The daunomycin incorporation in the hydrogels correlates well with the percentage of daunomycin-adipic dihydrazide conjugate that was determined by HPLC analysis. […]

[3] = release of ionically bound or physically entrapped drugs and dyes from hydrogels; type: physicochemical
Description: Samples containing 9.8, 19.5, and 39.1 mg brilliant blue per gram of PAG either with or without calcium (which enhances gelling) were studied over a period of several weeks.

Structure (SMILES): COc1cccc2c1C(=O)c1c(O)c3c(c(O)c1C2=O)C[C@@](O)(C(C)=O)C[C@@H]3O[C@H]1C[C@H](N)[C@H](O)[C@H](C)O1 [daunomycin]
IC50 (KB cells; Homo sapiens, KB, 48 h): 202 ± 48 nM | drug released during the first six weeks ([1]; 6% w/w PAG, 150 mM AAD, 40 mM calcium): 40% | release rate of drug from hydrogel ([1]; 6% w/w PAG, 150 mM AAD, 40 mM calcium, first six weeks): 0.8 % drug per day | time to release of all incorporated drug ([1]; 6% w/w PAG, 150 mM AAD, absence of calcium): four | release rate of drug from hydrogel ([1]; 6% w/w PAG, 150 mM adipic dihydrazide, acidic medium): 1.8 % per day | release rate of drug from hydrogel ([1]; 6% w/w PAG, 150 mM adipic dihydrazide, neutral condition): 1 % per day | time to release of total incorporated drug ([1]; 6 wt % PAG, 8 mM daunomycin, 150 mM AAD): thirty | release rate of drug from hydrogel ([1]; 6 wt % PAG, 8 mM daunomycin, 150 mM AAD, first ten days, DMEM 37° C.): 1 % drug per day | release rate of drug from hydrogel ([1]; 6 wt % PAG, 8 mM daunomycin, 150 mM AAD, following twenty-two days): approximately 4 % per day | time to release of total drug loaded ([1]; 6 wt % PAG, 50 mM AAD cross-linker): two | time to release of total drug loaded ([1]; 6 wt % PAG, 100 mM AAD): two | time to release of total drug loaded ([1]; 6 wt % PAG, elevated AAD concentrations): more than six | fraction retained in the hydrogel particles [2]: 86.9±0.1%

time to quantitative release from the hydrogels ([3]; physically entrapped, diffusion, all conditions): ≤ 5 days
Structure (SMILES): CN(Cc1cnc2nc(N)nc(N)c2n1)c1ccc(C(=O)N[C@@H](CCC(=O)O)C(=O)O)cc1 [Methotrexate]

Structure (SMILES): O=C1c2c(O)ccc(O)c2C(=O)c2c(NCCNCCO)ccc(NCCNCCO)c21 [Mitoxantrone]
cytotoxicity of drug alone versus mixed with AAD (prodrug formation, FIG. 9) (KB cells; mixed with AAD): not found to form a prodrug

time to release of the entire drug from hydrogel ([3]; PAG hydrogels incubated in DMEM): ≤ 24 h | fraction retained in the hydrogel particles [2]: two
Structure (SMILES): Cc1cc(-c2ccc(/N=N/c3c(S(=O)(=O)O)cc4cc(S(=O)(=O)O)cc(N)c4c3O)c(C)c2)ccc1/N=N/c1c(S(=O)(=O)O)cc2cc(S(=O)(=O)O)cc(N)c2c1O [trypan blue]
